Test results taken from ChEMBL document CHEMBL1201862, “PubChem BioAssay data set” (2004).
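Grown in 96-well plates, cells were treated for 48 hours with each compound at five concentrations. Insufficient inhibition: endpoint recorded as highest concentration tested. GI50 marks 50% less growth.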 Calls of active or inactive are those of the source. Cut-off read from the data, not from the text of the source: active = GI50 up to about 1.1 µM and inactive = higher.

Legend:
Experiment in all cases: NCI tumour cell line growth inhibition, 48 h
[1] = test system: PC-3
[2] = test system: HCT-116
[3] = test system: OVCAR-5
[4] = test system: RXF 393
[5] = test system: T47D
[6] = test system: SW-620
[7] = test system: SNB-75
[8] = test system: BT-549
[9] = test system: SK-OV-3
[10] = test system: HT-29
[11] = test system: SF-295
[12] = test system: UACC-62
[13] = test system: HOP-92
[14] = test system: SK-MEL-5
[15] = test system: TK-10
[16] = test system: K562
[17] = test system: MDA-MB-435
[18] = test system: OVCAR-4
[19] = test system: NCI/ADR-RES
[20] = test system: SN12C
[21] = test system: SF-539
[22] = test system: COLO 205
[23] = test system: M14
[24] = test system: UACC-257
[25] = test system: EKVX
[26] = test system: SK-MEL-2
[27] = test system: ACHN
[28] = test system: MDA-N
[29] = test system: CAKI-1
[30] = test system: U-251
[31] = test system: A498
[32] = test system: DU-145
[33] = test system: Malme-3M
[34] = test system: MCF7
[35] = test system: NCI-H460
[36] = test system: KM12
[37] = test system: NCI-H23
[38] = test system: NCI-H226
[39] = test system: OVCAR-3
[40] = test system: Hs-578T
[41] = test system: SK-MEL-28
[42] = test system: MDA-MB-231
[43] = test system: UO-31
[44] = test system: IGROV-1
[45] = test system: RPMI-8226
[46] = test system: SNB-19
[47] = test system: HCT-15
[48] = test system: SF-268
[49] = test system: HOP-62
[50] = test system: LOX IMVI
[51] = test system: A549
[52] = test system: MOLT-4
[53] = test system: CCRF-CEM
[54] = test system: HCC 2998
[55] = test system: 786-0
[56] = test system: OVCAR-8
[57] = test system: HL-60
[58] = test system: NCI-H522

SMILES: O=C(/C(=N\Nc1ccc([N+](=O)[O-])cc1[N+](=O)[O-])NC12CC3CC(CC(C3)C1)C2)C(Br)C(=O)c1ccccc1 (stereo unspecified)
- GI50 [1]: 2.61 µM (inactive)
- GI50 [2]: 3.05 µM (inactive)
- GI50 [3]: 5.4 µM (inactive)
- GI50 [4]: 2.78 µM (inactive)
- GI50 [5]: 2.69 µM (inactive)
- GI50 [6]: 0.766 µM (active)
- GI50 [7]: 2.48 µM (inactive)
- GI50 [8]: 4.44 µM (inactive)
- GI50 [9]: 2.75 µM (inactive)
- GI50 [10]: 4.45 µM (inactive)
- GI50 [11]: 3.99 µM (inactive)
- GI50 [12]: 3.38 µM (inactive)
- GI50 [13]: 2.79 µM (inactive)
- GI50 [14]: 1.08 µM (active)
- GI50 [15]: 5.66 µM (inactive)
- GI50 [16]: 2.8 µM (inactive)
- GI50 [17]: 3.52 µM (inactive)
- GI50 [18]: 2.77 µM (inactive)
- GI50 [19]: 3.23 µM (inactive)
- GI50 [20]: 3.12 µM (inactive)
- GI50 [21]: 3.31 µM (inactive)
- GI50 [22]: 2.18 µM (inactive)
- GI50 [23]: 2.86 µM (inactive)
- GI50 [24]: 1.88 µM (inactive)
- GI50 [25]: 3.56 µM (inactive)
- GI50 [26]: 2.12 µM (inactive)
- GI50 [27]: 3.18 µM (inactive)
- GI50 [28]: 4.69 µM (inactive)
- GI50 [29]: 3.2 µM (inactive)
- GI50 [30]: 2.85 µM (inactive)
- GI50 [31]: 2.71 µM (inactive)
- GI50 [32]: 4.48 µM (inactive)
- GI50 [33]: 3.13 µM (inactive)
- GI50 [34]: 3.86 µM (inactive)
- GI50 [35]: 3.61 µM (inactive)
- GI50 [36]: 2.78 µM (inactive)
- GI50 [37]: 3.33 µM (inactive)
- GI50 [38]: 2.52 µM (inactive)
- GI50 [39]: 2.54 µM (inactive)
- GI50 [40]: 4.67 µM (inactive)
- GI50 [41]: 9.31 µM (inactive)
- GI50 [42]: 2.27 µM (inactive)
- GI50 [43]: 6.12 µM (inactive)
- GI50 [44]: 6.67 µM (inactive)
- GI50 [45]: 1.84 µM (inactive)
- GI50 [46]: 3.97 µM (inactive)
- GI50 [47]: 4.99 µM
- GI50 [48]: 5.05 µM (inactive)
- GI50 [49]: 2.74 µM (inactive)
- GI50 [50]: 2.43 µM (inactive)
- GI50 [51]: 3.33 µM (inactive)
- GI50 [52]: 3.52 µM (inactive)
- GI50 [53]: 2.67 µM (inactive)
- GI50 [54]: 3.98 µM (inactive)
- GI50 [55]: 3.21 µM (inactive)
- GI50 [56]: 3.48 µM (inactive)
- GI50 [57]: 2.94 µM (inactive)

SMILES: CN(C)CCOC(=O)c1ccc(N)cc1
- GI50 [1]: 12.1 µM (inactive)
- GI50 [2]: 54.7 µM (inactive)
- GI50 [3]: 29.6 µM (inactive)
- GI50 [4]: 97.1 µM (inactive)
- GI50 [5]: 58.5 µM (inactive)
- GI50 [6]: 64.4 µM (inactive)
- GI50 [8]: 51.1 µM (inactive)
- GI50 [9]: 56.6 µM (inactive)
- GI50 [10]: 27 µM (inactive)
- GI50 [11]: 47.8 µM (inactive)
- GI50 [12]: 36.8 µM (inactive)
- GI50 [13]: 12.6 µM (inactive)
- GI50 [14]: 25.6 µM (inactive)
- GI50 [15]: 44.4 µM (inactive)
- GI50 [16]: 30 µM (inactive)
- GI50 [17]: 41.8 µM (inactive)
- GI50 [18]: 31.6 µM (inactive)
- GI50 [19]: 51.2 µM (inactive)
- GI50 [20]: 48.2 µM (inactive)
- GI50 [22]: 67.3 µM (inactive)
- GI50 [23]: 17.6 µM (inactive)
- GI50 [24]: 19.4 µM (inactive)
- GI50 [27]: 54.1 µM (inactive)
- GI50 [28]: 36.6 µM (inactive)
- GI50 [29]: 32.3 µM (inactive)
- GI50 [30]: 32.1 µM (inactive)
- GI50 [31]: 38.4 µM (inactive)
- GI50 [32]: 71.6 µM (inactive)
- GI50 [33]: 49.8 µM (inactive)
- GI50 [34]: 32.6 µM (inactive)
- GI50 [35]: 31.8 µM (inactive)
- GI50 [36]: 37.2 µM (inactive)
- GI50 [37]: 74.1 µM (inactive)
- GI50 [38]: 21.5 µM (inactive)
- GI50 [39]: 45.2 µM (inactive)
- GI50 [40]: 32.4 µM (inactive)
- GI50 [41]: 29.1 µM (inactive)
- GI50 [42]: 16.1 µM (inactive)
- GI50 [43]: 33.8 µM (inactive)
- GI50 [44]: 22.4 µM (inactive)
- GI50 [45]: 24.4 µM (inactive)
- GI50 [46]: 56.5 µM (inactive)
- GI50 [47]: > 100 µM
- GI50 [58]: 20.4 µM (inactive)
- GI50 [48]: 41.6 µM (inactive)
- GI50 [49]: > 100 µM (inactive)
- GI50 [50]: 28.7 µM (inactive)
- GI50 [51]: 52.4 µM (inactive)
- GI50 [52]: 28.2 µM (inactive)
- GI50 [53]: 20.7 µM (inactive)
- GI50 [54]: 16 µM (inactive)
- GI50 [55]: 44.8 µM (inactive)
- GI50 [56]: 70.8 µM (inactive)
- GI50 [57]: 39 µM (inactive)
